In patent publication US10568819B2, “Skin enhancing compositions and methods” (Sytheon Limited, priority 2016, dated 2020):

Experiments:
Keratinocyte = assay: UVA-induced delayed formation of CPDs (dCPDs) in keratinocytes; type: cell-based; conditions: 25 μg/ml
Experimental: A second study was carried out, similar to the first, except that this time the analysis was in assessing the efficacy, if any, of the presently taught aryl alkanones in reducing UVA-induced delayed formation of CPDs (dCPDs).

COL3A1 = assay: DNA microarray gene expression, COL3A1; type: cell-based
From the text: (§1) In light of the efficacy of the aryl alkanones ire addressing many of the molecular/biomolecular processes damaged by UV exposure, a study was undertaken to assess whether these compounds would also be effective in addressing symptoms associated with non-UV induced skin aging including chronological aging as well as disease conditions that likewise adversely affect skin processes. The studies conducted involves DNA microarray, PCR array, cell culture, enzyme inhibitory activity.

COL6A3 = assay: DNA microarray gene expression, COL6A3; type: cell-based
From the text: as §1

FBLN1 = assay: DNA microarray gene expression, FBLN1; type: cell-based
From the text: as §1

VCAN = assay: DNA microarray gene expression, VCAN; type: cell-based
From the text: as §1

FMOD = assay: DNA microarray gene expression, FMOD; type: cell-based
From the text: as §1

TIMP4 = assay: DNA microarray gene expression, TIMP4; type: cell-based
From the text: as §1

MMP3 = assay: DNA microarray gene expression, MMP3; type: cell-based
From the text: as §1

Collagen type 1 = assay: Collagen 1 boosting in human dermal fibroblasts; type: cell-based; conditions: HDF, incubation time of 6 days
Experimental: In this study, an investigation was performed in relation to the ability, if any, of the aryl alkanones to boost the production of Collagens 1, 3 and 4 proteins. […] In this study, the cells used were human dermal fibroblasts (HDF), passage 12 (Cell Applications, San Diego, Calif.) which underwent an incubation time of 6 days.

MMP-3 enzyme = biological target: T1, MMP-3 enzyme (Homo sapiens, UniProt P08254); assay: MMP-3 inhibition; type: biochemical; conditions: read-out: Inhibitory concentration (IC50), MMP-3
T1 construct: purchased Anaspec
T1 sequence (P08254 100-477, species assumed): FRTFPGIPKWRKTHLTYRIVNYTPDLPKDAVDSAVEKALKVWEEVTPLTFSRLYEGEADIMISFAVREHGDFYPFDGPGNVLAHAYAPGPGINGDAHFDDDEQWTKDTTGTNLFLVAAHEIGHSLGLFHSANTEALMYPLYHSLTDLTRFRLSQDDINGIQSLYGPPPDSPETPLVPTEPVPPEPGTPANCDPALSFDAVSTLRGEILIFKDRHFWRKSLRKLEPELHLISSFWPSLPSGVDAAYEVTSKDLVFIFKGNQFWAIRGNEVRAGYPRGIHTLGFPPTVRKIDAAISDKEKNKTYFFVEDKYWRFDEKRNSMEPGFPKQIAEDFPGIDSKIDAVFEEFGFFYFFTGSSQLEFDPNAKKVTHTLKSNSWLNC
Experimental: Another study was conducted in which the elastin and MMP activity of Compound 1 was evaluated. The methodology for the study of MMP-1 and MMP-3 activity was as follows: • A 0.1 g sample of Compound 1 was dissolved in 1 ml DMSO, then it was diluted 100× with Tris buffer (50 mM Iris pH 7.5, 150 mM NaCl, 2 mM CaCl2, 5μ ZnO4, 0.01% Brij-35) to make a stock solution. For the analysis, different concentrations of Compound 1 were used to determine the IC50. The sample and 100 ng/ml MMP-1 enzyme (Anaspec) or MMP-3 enzyme (Anaspec) were incubated at 37° C. for 10 minutes before the addition of 2.25 μM PEPDAB008 substrate (Biozyme). The fluorescence signal was monitored at excitation of 485 nm and emission of 530 nm.

COc1cc(CC(C(C)=O)C(C)=O)ccc1O [Compound 1, Acetyl Zingerone]
UVA/% Reduction in dCPDs vs. control, 0 hr. (Reduction in iCPDs) (Keratinocyte; 0 hr.): ^+0 hr.: ↓14% | UVA/% Reduction in dCPDs vs. control, 1 hr. (Keratinocyte; 1 hr.): 1 hr.: ↓43% | UVA/% Reduction in dCPDs vs. control, 2 hr. (Keratinocyte; 2 hr.): 2 hr.: ~0% | Microarray, COL3A1 gene expression (COL3A1): +1.7 | Microarray, COL6A3 gene expression (COL6A3): +1.8 | Microarray, FBLN1 gene expression (FBLN1): +1.9 | Microarray, VCAN gene expression (VCAN): +1.7 | Microarray, FMOD gene expression (FMOD): +1.6 | Microarray, TIMP4 gene expression (TIMP4): +1.6 | Microarray, MMP3 gene expression (MMP3): −2.4 | % Collagen 1 Bosting (Collagen type 1; 50 μg/ml): 118% | % Collagen 1 Bosting (Collagen type 1; 100 μg/ml): 173% | IC50 (MMP-3 enzyme): 2.14 mM
